Test results as given in US7723356B2, “Quinuclidine derivatives and their use as muscarinic m3 receptor antagonists” (Novartis AG, priority 2004, dated 2010).

target: T1, human muscarinic acetylcholine M3 receptor (Homo sapiens, UniProt P20309); assay: competitive filtration binding assay with [3H] n-methyl scopolamine (NMS); settings: M3 Ki, membranes from CHO cells stably transfected with human M3 receptor; [3H]NMS 0.25 nM; 17 hours at room temperature; Cheng-Prusoff correction
T1 construct: expressed in transfected cells; host or cells: CHO cells (stably transfected), membrane preparation
T1 sequence (P20309 whole entry): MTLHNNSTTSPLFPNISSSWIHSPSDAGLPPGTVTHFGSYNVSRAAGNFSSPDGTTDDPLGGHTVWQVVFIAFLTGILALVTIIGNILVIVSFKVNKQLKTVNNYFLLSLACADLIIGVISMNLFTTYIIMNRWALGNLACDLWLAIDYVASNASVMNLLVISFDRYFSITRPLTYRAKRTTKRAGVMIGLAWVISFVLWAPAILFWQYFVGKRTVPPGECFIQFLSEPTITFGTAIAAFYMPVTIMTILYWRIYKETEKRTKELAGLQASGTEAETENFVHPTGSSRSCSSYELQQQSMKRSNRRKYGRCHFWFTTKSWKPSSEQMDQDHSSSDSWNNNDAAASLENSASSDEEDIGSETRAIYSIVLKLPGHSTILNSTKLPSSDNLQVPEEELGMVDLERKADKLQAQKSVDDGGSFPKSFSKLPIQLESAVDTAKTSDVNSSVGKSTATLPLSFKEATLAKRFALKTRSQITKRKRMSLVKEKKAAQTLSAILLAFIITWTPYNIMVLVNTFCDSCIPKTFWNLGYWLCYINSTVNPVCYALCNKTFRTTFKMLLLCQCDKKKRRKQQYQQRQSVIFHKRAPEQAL
Experimental: The affinity (Ki) of agents of the invention at the human muscarinic acetylcholine M3 receptor can be determined in a competitive filtration binding assay with the radio-labelled antagonist [^3H] n-methyl scopolamine methyl chloride. (NMS):
Membranes prepared from CHO cells stably transfected with human M3 receptor at 10 μg protein/well are incubated with serial dilutions of the agents of the invention, [^3H]NMS (0.25 nM) and assay buffer (20 mM HEPES, 1 mM MgCl2 at pH 7.4) for 17 hours at room temperature. The assay is carried out in a 250 μL final volume, in the presence of a final dimethyl sulfoxide concentration of 1%. Total binding of [^3H]NMS is determined in the absence of the agents of the invention with a corresponding substituted volume of assay buffer. Non-specific binding of [^3H] NMS is determined in the presence of 300 nM ipratropium bromide. Following the incubation period, the membranes are harvested onto a Unifilter™ GF/B filter plate containing 0.05% polyethyleneimine, using a Brandel™ filtration harvester 9600. Filter plates are dried for two hours at 35° C. before the addition of Microscint™ ‘O’ cocktail, and read on a Packard Topcount™ scintillator using a ^3H-Scintillation protocol. All IC50s are calculated with the aid of XL-Fit graph package and Ki values derived using the Cheng-Prusoff correction (Cheng Y., Prusoff W. H. (1973) Biochem. Pharmacol 22 3099-3109).

Compound	Ki [nM]
O=C(C[N+]12CCC(CC1)[C@@H](OC(=O)C(O)(c1ccccc1)C1CCCCC1)C2)Nc1ccon1 (stereo partly drawn) [Example 8, (R)-3-(2-Cyclohexyl-2-hydroxy-2-phenyl-acetoxy)-1-(isoxazol-3-ylcarbamoylmethyl)-1-azonia-bicyclo[2.2.2]octane bromide]	0.75
CC(C(=O)O[C@H]1C[N+]2(CC(=O)Nc3ccon3)CCC1CC2)(c1ccccc1)c1ccccc1 [Example 4, (R)-3-(2,2-Diphenyl-propionyloxy)-1-(isoxazol-3-ylcarbamoylmethyl)-1-azonia-bicyclo[2.2.2]octane bromide]	0.65
Cc1ccc(C(O)(C(=O)O[C@H]2C[N+]3(CC(=O)Nc4ccon4)CCC2CC3)c2ccc(C)cc2)cc1 [Example 2, (R)-3-(2-Hydroxy-2,2-di-p-tolyl-acetoxy)-1-(isoxazol-3-ylcarbamoylmethyl)-1-azonia-bicyclo[2.2.2]octane bromide]	1.4
O=C(C[N+]12CCC(CC1)[C@@H](OC(=O)C(c1ccccc1)c1ccccc1)C2)Nc1ccon1 [Example 5, (R)-3-Diphenylacetoxy-1-(isoxazol-3-ylcarbamoylmethyl)-1-azonia-icyclo[2.2.2]octane bromide]	0.63
O=C(C[N+]12CCC(CC1)[C@@H](OC(=O)C(O)(c1ccccc1Cl)c1ccccc1Cl)C2)Nc1ccon1 [Example 1, (R)-3-[2,2-Bis-(2-chloro-phenyl)-2-hydroxy-acetoxy]-1-(isoxazol-3-ylcarbamoylmethyl)-1-azonia-bicyclo[2.2.2]octane bromide]	2.3

same assay, conditions: M3 pKi, membranes from CHO cells stably transfected with human M3 receptor; [3H]NMS 0.25 nM

Compound	Ki [nM]
O=C(C[N+]12CCC(CC1)[C@@H](OC(=O)C(O)(c1ccccc1)C1CCCC1)C2)Nc1ccon1 (stereo partly drawn) [Example 11, (R)-3-(2-Cyclopentyl-2-hydroxy-2-phenyl-acetoxy)-1-(isoxazol-3-ylcarbamoyl-methyl)-1-azonia-bicyclo[2.2.2]octane bromide]	0.00631
O=C(C[N+]12CCC(CC1)[C@@H](OC(=O)C(O)(c1cccs1)C1CCCCC1)C2)Nc1ccon1 (stereo partly drawn) [Example 10, (R)-3-(2-Cyclohexyl-2-hydroxy-2-thiophen-2-yl-acetoxy)-1-(isoxazol-3-ylcarbamoylmethyl)-1-azonia-bicyclo[2.2.2]octane bromide]	0.0115
O=C(C[N+]12CCC(CC1)[C@@H](OC(=O)C(O)(c1ccccc1)C1CCCCC1)C2)Nc1ccon1 (stereo partly drawn) [Example 8, (R)-3-(2-Cyclohexyl-2-hydroxy-2-phenyl-acetoxy)-1-(isoxazol-3-ylcarbamoylmethyl)-1-azonia-bicyclo[2.2.2]octane bromide]	0.0126
